According to publication PMC9851200, “Multiparameter phenotypic screening for endogenous TFEB and TFE3 translocation identifies novel chemical series modulating lysosome function” (Autophagy, 2022):
Where two headings read alike, the source gives them in different places.

Legend:
Assay type in all cases: binding
[1] = target: T1, kinases (KINOMEscan panel) (Homo sapiens, UniProt Q59H18); conditions: kinase TNNI3K; NEW KINOMEscan
T1 sequence (Q59H18 1-835): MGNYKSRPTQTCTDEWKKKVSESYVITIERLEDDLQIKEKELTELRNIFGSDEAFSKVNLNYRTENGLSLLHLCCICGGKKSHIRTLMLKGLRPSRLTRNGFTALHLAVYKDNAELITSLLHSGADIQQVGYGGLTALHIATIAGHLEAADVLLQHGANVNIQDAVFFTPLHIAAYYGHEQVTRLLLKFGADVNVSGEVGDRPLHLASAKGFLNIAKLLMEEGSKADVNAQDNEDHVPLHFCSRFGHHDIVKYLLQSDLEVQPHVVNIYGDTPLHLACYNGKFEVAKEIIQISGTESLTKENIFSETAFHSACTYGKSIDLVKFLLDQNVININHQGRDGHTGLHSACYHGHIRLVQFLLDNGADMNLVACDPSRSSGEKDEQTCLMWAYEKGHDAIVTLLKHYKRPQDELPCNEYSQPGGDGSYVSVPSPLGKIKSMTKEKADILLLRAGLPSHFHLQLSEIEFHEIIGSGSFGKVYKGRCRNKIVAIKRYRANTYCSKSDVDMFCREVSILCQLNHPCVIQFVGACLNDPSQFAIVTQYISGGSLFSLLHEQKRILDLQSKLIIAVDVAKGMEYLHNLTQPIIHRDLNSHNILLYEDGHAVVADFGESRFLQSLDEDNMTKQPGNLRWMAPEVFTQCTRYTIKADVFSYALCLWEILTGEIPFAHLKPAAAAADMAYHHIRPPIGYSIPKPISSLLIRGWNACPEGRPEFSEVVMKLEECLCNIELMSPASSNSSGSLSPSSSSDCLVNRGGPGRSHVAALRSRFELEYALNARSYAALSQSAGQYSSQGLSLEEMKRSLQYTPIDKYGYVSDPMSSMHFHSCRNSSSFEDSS

[2] = target: T2, kinases (KINOMEscan panel) (Homo sapiens, UniProt P29322); conditions: kinase EPHA8; NEW KINOMEscan
T2 sequence (P29322 28-1005): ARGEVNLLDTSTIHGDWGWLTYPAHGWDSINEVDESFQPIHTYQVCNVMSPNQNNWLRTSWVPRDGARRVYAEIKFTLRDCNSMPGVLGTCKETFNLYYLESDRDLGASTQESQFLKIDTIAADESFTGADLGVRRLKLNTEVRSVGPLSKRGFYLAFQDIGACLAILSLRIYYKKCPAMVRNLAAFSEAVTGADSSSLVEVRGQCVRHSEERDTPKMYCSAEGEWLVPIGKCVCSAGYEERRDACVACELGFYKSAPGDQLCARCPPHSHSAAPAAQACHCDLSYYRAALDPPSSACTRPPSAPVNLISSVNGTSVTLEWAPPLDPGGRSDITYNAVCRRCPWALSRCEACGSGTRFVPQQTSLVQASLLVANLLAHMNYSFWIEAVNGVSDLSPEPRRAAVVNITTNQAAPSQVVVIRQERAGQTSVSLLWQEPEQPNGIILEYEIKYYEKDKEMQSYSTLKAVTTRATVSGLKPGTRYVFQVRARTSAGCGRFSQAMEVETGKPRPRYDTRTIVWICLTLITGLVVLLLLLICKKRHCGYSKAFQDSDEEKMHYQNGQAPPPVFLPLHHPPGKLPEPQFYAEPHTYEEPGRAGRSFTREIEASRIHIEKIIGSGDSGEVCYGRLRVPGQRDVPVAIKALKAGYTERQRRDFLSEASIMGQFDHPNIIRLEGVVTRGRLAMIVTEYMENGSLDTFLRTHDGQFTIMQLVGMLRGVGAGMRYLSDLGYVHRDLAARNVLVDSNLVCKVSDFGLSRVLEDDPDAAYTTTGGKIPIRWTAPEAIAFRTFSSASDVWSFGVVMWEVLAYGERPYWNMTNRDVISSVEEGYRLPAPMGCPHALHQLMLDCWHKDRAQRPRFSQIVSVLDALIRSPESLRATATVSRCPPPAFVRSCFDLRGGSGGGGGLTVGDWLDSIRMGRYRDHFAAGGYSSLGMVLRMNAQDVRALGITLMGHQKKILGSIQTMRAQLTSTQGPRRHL

[3] = target: T3, kinases (KINOMEscan panel) (Homo sapiens, UniProt Q8IW41)
T3 sequence (Q8IW41 1-473): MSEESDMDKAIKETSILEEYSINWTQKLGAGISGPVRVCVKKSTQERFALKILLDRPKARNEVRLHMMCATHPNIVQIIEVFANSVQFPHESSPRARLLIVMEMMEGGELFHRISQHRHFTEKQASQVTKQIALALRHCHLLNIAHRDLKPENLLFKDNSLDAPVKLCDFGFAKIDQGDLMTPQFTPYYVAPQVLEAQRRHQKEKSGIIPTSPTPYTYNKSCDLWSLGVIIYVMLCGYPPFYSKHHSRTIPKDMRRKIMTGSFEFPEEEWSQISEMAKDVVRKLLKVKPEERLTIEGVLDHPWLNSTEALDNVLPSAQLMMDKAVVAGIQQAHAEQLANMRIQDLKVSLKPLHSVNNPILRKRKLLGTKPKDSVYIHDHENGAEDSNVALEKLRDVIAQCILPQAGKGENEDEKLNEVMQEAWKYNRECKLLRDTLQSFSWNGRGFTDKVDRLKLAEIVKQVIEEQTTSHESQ

[4] = target: kinases (KINOMEscan panel) (Homo sapiens, UniProt Q07912); conditions: TNK2; NEW KINOMEscan
[5] = target: kinases (KINOMEscan panel) (Homo sapiens, UniProt P41240); conditions: kinase CSK; NEW KINOMEscan
[6] = target: kinases (KINOMEscan panel) (Homo sapiens, UniProt Q00536); conditions: kinase CDK16; NEW KINOMEscan
[7] = target: kinases (KINOMEscan panel) (Homo sapiens, UniProt P36888, R834Q); conditions: kinase FLT3(R834Q); NEW KINOMEscan
[8] = target: kinases (KINOMEscan panel) (Homo sapiens, UniProt P07948); conditions: NEW KINOMEscan
[9] = target: kinases (KINOMEscan panel) (Homo sapiens, UniProt P08581, M1250T); conditions: kinase MET(M1250T); NEW KINOMEscan
[10] = target: kinases (KINOMEscan panel) (Homo sapiens, UniProt Q9HAZ1); conditions: kinase CLK4; NEW KINOMEscan
kinases (KINOMEscan panel) (Homo sapiens, UniProt Q9HAZ1), sequence (Q9HAZ1 whole entry): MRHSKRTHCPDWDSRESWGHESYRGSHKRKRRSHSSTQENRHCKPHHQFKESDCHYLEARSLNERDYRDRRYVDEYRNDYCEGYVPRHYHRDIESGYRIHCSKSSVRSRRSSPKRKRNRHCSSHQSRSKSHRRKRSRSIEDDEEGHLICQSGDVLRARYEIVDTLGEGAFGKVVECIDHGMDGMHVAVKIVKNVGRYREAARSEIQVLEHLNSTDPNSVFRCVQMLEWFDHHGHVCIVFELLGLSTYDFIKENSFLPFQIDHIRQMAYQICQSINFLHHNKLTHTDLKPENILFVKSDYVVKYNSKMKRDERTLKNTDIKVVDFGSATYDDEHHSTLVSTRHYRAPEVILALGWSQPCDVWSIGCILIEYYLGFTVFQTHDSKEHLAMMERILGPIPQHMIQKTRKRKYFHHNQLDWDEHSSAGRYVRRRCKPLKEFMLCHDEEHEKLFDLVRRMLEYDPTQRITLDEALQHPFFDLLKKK

kinases (KINOMEscan panel) (Homo sapiens, UniProt Q00536), sequence (Q00536 whole entry): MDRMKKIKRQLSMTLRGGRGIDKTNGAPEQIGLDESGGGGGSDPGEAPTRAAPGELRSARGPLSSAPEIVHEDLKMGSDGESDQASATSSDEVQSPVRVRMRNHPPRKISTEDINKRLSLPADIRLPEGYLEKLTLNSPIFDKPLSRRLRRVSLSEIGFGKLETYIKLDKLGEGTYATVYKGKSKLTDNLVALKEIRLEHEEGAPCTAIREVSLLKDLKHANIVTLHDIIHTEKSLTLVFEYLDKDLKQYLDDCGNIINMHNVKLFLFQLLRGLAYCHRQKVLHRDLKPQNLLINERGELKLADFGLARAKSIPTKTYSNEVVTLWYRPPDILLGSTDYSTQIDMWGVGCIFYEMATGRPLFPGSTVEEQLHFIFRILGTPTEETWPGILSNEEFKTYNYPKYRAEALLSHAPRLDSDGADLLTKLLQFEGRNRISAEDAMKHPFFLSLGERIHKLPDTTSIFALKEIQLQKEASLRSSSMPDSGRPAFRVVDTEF
kinases (KINOMEscan panel) (Homo sapiens, UniProt P41240), sequence (P41240 whole entry): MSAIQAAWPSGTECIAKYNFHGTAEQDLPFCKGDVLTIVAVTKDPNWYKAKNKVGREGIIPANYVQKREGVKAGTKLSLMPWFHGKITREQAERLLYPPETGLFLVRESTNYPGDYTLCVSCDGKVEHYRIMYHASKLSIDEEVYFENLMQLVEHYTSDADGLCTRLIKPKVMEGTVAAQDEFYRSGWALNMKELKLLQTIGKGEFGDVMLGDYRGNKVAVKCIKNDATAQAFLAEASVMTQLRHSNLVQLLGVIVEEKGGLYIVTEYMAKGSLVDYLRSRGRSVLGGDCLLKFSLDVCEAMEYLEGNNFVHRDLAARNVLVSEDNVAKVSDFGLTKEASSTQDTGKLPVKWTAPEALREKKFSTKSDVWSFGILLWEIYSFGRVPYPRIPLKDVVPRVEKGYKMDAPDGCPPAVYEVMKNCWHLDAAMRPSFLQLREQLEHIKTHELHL
kinases (KINOMEscan panel) (Homo sapiens, UniProt P08581, M1250T), sequence (P08581 25-1390 M1250T): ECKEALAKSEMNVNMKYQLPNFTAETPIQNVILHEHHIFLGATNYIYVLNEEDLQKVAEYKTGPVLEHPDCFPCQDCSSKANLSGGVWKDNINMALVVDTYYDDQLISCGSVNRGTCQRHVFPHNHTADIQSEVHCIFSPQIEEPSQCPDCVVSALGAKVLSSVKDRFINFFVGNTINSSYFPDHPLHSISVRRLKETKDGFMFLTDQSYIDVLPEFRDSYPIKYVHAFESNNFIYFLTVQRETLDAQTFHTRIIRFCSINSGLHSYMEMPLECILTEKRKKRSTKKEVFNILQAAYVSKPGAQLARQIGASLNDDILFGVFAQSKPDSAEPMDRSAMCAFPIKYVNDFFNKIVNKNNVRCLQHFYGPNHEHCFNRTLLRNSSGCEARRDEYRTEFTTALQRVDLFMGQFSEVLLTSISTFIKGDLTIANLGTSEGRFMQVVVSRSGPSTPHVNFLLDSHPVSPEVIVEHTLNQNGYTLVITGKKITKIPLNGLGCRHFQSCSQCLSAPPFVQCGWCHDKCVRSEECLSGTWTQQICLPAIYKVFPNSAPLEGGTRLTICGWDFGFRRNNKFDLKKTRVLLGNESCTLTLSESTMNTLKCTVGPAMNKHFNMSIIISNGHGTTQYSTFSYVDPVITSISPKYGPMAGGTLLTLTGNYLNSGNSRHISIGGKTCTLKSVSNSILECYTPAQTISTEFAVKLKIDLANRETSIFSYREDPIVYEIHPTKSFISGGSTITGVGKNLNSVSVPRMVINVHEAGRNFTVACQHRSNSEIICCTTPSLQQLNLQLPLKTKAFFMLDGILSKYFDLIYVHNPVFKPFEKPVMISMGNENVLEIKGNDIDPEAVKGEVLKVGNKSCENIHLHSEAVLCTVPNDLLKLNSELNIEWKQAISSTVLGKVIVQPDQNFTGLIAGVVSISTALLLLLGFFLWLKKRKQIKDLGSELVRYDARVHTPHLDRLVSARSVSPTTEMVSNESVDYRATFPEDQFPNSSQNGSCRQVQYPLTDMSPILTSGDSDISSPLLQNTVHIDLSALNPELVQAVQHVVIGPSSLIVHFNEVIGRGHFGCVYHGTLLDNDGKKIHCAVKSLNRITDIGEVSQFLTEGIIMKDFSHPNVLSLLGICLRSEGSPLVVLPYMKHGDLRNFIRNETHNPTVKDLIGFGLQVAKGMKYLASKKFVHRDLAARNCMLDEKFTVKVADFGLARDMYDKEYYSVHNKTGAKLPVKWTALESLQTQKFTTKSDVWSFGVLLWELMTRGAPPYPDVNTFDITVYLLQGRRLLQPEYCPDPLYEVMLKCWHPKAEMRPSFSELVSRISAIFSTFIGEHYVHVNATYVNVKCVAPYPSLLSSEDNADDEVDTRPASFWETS
kinases (KINOMEscan panel) (Homo sapiens, UniProt P07948), sequence (P07948 whole entry): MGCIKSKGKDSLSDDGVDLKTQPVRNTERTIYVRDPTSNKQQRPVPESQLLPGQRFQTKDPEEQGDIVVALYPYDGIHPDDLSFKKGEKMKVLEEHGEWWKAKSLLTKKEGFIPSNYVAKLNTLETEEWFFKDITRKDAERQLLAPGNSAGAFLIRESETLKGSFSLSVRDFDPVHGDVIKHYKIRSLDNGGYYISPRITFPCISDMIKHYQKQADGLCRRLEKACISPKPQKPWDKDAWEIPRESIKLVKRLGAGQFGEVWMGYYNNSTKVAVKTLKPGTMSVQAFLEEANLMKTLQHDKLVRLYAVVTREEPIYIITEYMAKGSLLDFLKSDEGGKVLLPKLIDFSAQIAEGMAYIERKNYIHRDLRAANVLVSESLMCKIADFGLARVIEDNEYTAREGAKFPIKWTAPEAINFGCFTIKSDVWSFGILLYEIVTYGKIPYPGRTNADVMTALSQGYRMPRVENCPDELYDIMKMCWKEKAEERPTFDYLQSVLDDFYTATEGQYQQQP
kinases (KINOMEscan panel) (Homo sapiens, UniProt Q07912), sequence (Q07912 whole entry): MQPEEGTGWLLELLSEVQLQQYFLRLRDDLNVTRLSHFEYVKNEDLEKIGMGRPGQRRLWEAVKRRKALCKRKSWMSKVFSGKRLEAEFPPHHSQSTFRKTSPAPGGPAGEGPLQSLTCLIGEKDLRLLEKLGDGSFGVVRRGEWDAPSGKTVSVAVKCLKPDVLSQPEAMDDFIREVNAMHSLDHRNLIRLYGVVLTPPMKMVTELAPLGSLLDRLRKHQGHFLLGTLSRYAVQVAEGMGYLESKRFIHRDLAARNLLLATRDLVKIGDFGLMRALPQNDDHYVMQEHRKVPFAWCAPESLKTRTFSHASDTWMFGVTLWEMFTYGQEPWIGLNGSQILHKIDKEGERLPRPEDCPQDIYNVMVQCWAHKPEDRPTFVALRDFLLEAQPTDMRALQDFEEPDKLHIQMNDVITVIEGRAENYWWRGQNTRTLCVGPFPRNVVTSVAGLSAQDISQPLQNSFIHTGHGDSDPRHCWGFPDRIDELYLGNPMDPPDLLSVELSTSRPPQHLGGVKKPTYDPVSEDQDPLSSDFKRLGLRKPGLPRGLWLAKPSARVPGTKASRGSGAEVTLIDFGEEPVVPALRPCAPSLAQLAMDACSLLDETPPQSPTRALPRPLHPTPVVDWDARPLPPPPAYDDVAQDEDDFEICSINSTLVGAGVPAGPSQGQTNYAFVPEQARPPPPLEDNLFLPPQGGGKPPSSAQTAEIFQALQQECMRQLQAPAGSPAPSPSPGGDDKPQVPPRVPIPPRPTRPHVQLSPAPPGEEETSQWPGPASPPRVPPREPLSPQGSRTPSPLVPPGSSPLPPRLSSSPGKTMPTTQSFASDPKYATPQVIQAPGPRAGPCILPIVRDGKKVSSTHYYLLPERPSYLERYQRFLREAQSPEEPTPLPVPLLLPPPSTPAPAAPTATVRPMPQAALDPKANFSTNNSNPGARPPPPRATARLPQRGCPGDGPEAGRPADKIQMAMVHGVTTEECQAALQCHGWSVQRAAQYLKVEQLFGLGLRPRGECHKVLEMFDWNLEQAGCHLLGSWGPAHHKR

SMILES	KINOMEscan TNNI3K [1]	KINOMEscan EPHA8 [2]	KINOMEscan MAPKAPK5 ([3]; MAPKAPK5, NEW KINOMEscan)	KINOMEscan TNK2 [4]	KINOMEscan CSK [5]	KINOMEscan CDK16 [6]	KINOMEscan FLT3(R834Q) [7]	KINOMEscan LYN [8]	KINOMEscan MET(M1250T) [9]	KINOMEscan CLK4 [10]	KINOMEscan MAPKAPK5 [3]
Cc1cccc(-c2nc(Nc3ccc4nn(C)cc4c3)c3ccccc3n2)n1 [NK167]	6	0	0	0	6	0	0	17	0	22	–
Cc1cccc(-c2nc(N(C)c3ccc4ncsc4c3)c3ccccc3n2)n1 [NK-161]	9	0	–	0	0	0	2	12	3	10	0
